From patent US7932270B2 (Cytokinetics, Inc., priority 2006, dated 2011) come the findings set out here.

Structures are written as SMILES.

T1 sequence (P02607 2-151): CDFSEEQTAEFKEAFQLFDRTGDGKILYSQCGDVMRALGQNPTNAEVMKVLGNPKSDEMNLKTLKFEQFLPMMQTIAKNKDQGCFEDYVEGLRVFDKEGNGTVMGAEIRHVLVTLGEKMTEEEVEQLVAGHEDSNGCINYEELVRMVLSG
T1 sequence (P10587 84-789): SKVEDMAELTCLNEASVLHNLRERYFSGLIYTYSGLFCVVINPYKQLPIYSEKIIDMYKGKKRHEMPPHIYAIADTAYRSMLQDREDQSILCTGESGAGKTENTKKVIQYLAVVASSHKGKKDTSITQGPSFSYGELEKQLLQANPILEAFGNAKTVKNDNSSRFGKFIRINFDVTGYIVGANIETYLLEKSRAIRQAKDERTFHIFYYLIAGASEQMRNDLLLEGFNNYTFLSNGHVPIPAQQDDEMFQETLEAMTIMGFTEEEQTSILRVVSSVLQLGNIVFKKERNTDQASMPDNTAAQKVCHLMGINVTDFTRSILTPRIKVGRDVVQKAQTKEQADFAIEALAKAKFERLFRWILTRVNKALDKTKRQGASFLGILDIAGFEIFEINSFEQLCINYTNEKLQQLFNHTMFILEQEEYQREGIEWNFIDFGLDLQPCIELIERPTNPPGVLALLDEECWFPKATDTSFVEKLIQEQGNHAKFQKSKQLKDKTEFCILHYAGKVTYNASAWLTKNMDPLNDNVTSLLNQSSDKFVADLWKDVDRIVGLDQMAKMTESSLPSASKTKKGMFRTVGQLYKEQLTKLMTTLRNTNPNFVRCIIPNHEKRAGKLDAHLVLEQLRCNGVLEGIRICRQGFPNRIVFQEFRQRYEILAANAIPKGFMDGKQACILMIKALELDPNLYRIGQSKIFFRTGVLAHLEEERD

The assay concerns the target T1, chicken gizzard smooth muscle myosin subfragment-1 chemically crosslinked to cardiac or skeletal actin (Gallus gallus, UniProt P10587).
T1 construct: chicken gizzard smooth muscle myosin subfragment-1; from tissue; host or cells: chicken gizzard
The assay can be described thus: Smooth muscle myosin ATPase dose response assay (pyruvate kinase/horseradish peroxidase/pyruvate oxidase-coupled, amplex red fluorescence). It is filed as biochemical. To be noted: read-out: IC50 Arithmetic Mean. The method in brief:
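Chicken gizzard myosin S1 crosslinked to cardiac or skeletal actin, titrated to a set hydrolysis rate; 0.15 mM ATP, 12 mM PIPES pH 7.00, 100 mM KCl, 2 mM MgCl2. Pyruvate kinase/pyruvate oxidase/HRP coupling with amplex red fluorescence; IC50 from 4-parameter fit.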
With `O=C(NCc1ccccc1)c1ccc(-c2ccccc2)nc1NCCc1ccccn1` [N-benzyl{6-phenyl-2-[(2-(2-pyridyl)ethyl)amino](3-pyridyl)}carboxamide], the IC50 stood at 1.56 µM. Regarding `CNC(=O)c1ccc(-c2ccccc2)nc1NCCc1cccc(C)c1` [N-methyl(2-{[2-(3-methylphenyl)ethyl]amino}-6-phenyl(3-pyridyl))carboxamide], the IC50 was found to be 6.75 µM. Regarding `CNC(=O)CNC(=O)c1ccc(-c2ccccc2)nc1NCCc1ccccc1` [N-methyl-2-({6-phenyl-2-[(2-phenylethyl)amino](3-pyridyl)}carbonylamino)acetamide], the IC50 is 0.486 µM. As to `CNC(=O)c1ccc(-c2ccccc2)nc1NCCc1ccccn1` [N-methyl{6-phenyl-2-[(2-(2-pyridyl)ethyl)amino](3-pyridyl)}carboxamide], the IC50 came out at 27.7 µM. For `CNC(=O)c1ccc(-c2ccccc2)nc1NCCc1ccccc1` [N-methyl{6-phenyl-2-[(2-phenylethyl)amino](3-pyridyl)}carboxamide] the value was 18.6 µM; for `N#Cc1ccccc1-c1ccc(C(=O)NCCc2ncccc2CN)c(NCCc2cccc(F)c2)n1` [N-{2-[3-(aminomethyl)(2-pyridyl)]ethyl}(6-(2-cyanophenyl)-2-{[2-(3-fluorophenyl)ethyl]amino}(3-pyridyl))carboxamide], 0.31 µM. Take `NCc1cccc(CCNC(=O)c2ccc(-c3ccccc3)nc2NCCc2cccc(F)c2)n1` [N-{2-[6-(aminomethyl)(2-pyridyl)]ethyl}(2-{[2-(3-fluorophenyl)ethyl]amino}-6-phenyl(3-pyridyl))carboxamide]: the IC50 stood at 0.252 µM. On to `N#Cc1ccccc1-c1ccc(C(=O)NCCc2cccc(CN)n2)c(NCCc2cccc(F)c2)n1` [N-{2-[6-(aminomethyl)(2-pyridyl)]ethyl}(6-(2-cyanophenyl)-2-{[2-(3-fluorophenyl)ethyl]amino}(3-pyridyl))carboxamide], for which the IC50 worked out at 0.032 µM. The value for `N#Cc1ccccc1-c1ccc(C(=O)NCCNCCN)c(NCCc2cccc(F)c2)n1` [N-{2-[(2-aminoethyl)amino]ethyl}(6-(2-cyanophenyl)-2-{[2-(3-fluorophenyl)ethyl]amino}(3-pyridyl))carboxamide] was 0.444 µM; that for `N#Cc1ccccc1-c1ccc(C(=O)NCCN2C(=O)CC[C@@H]2CN)c(NCCc2cccc(F)c2)n1` [N-{2-[(5R)-5-(aminomethyl)-2-oxopyrrolidinyl]ethyl}(6-(2-cyanophenyl)-2-{[2-(3-fluorophenyl)ethyl]amino}(3-pyridyl))carboxamide] was 19.5 µM.

Turning to `N#Cc1ccccc1-c1ccc(C(=O)NCCN2C(=O)CC[C@H]2CN)c(NCCc2cccc(F)c2)n1` [N-{2-[(5S)-5-(aminomethyl)-2-oxopyrrolidinyl]ethyl}(6-(2-cyanophenyl)-2-{[2-(3-fluorophenyl)ethyl]amino}(3-pyridyl))carboxamide], the IC50 stood at 17.9 µM.

With `CC(=O)NCCNC(=O)c1ccc(-c2ccccc2C#N)nc1NCCc1cccc(F)c1` [N-{2-[(6-(2-cyanophenyl)-2-{[2-(3-fluorophenyl)ethyl]amino}-3-pyridyl)carbonylamino]ethyl}acetamide], the IC50 stood at 0.958 µM. For `CN(CCNC(=O)c1ccc(-c2ccccc2C#N)nc1NCCc1cccc(F)c1)C(=O)OC(C)(C)C` [N-{2-[(tert-butoxy)-N-methylcarbonylamino]ethyl}(6-(2-cyanophenyl)-2-{[2-(3-fluorophenyl)ethyl]amino}(3-pyridyl))carboxamide] the value was 42.2 µM.

On to `CN(CCNC(=O)CNC(=O)c1ccc(-c2ccccc2C#N)nc1NCCc1cccc(F)c1)C(=O)OC(C)(C)C` [N-{2-[(tert-butoxy)-N-methylcarbonylamino]ethyl}-2-[(6-(2-cyanophenyl)-2-{[2-(3-fluorophenyl)ethyl]amino}(3-pyridyl))carbonylamino]acetamide], for which the IC50 stood at 65.5 µM.

Regarding `CC(=O)NCCCNC(=O)c1cc(F)c(-c2cnn(C)c2)nc1NCCc1cccc(F)c1` [N-{3-[(5-fluoro-2-{[2-(3-fluorophenyl)ethyl]amino}-6-(1-methylpyrazol-4-yl)-3-pyridyl)carbonylamino]propyl}acetamide], the IC50 was 2.62 µM. `N#Cc1ccccc1-c1ccc(C(=O)NCCCN2C(=O)CC[C@@H]2CN)c(NCCc2cccc(F)c2)n1` [N-{3-[(5R)-5-(aminomethyl)-2-oxopyrrolidinyl]propyl}(6-(2-cyanophenyl)-2-{[2-(3-fluorophenyl)ethyl]amino}(3-pyridyl))carboxamide]: the IC50 is 4.95 µM. Regarding `N#Cc1ccccc1-c1ccc(C(=O)NCCCN2C(=O)CC[C@H]2CN)c(NCCc2cccc(F)c2)n1` [N-{3-[(5S)-5-(aminomethyl)-2-oxopyrrolidinyl]propyl}(6-(2-cyanophenyl)-2-{[2-(3-fluorophenyl)ethyl]amino}(3-pyridyl))carboxamide], the IC50 was 11.7 µM. Regarding `Cn1cc(-c2nc(NCCc3cccc(F)c3)c(C(=O)NCCCNC(=O)OC(C)(C)C)cc2F)cn1` [N-{3-[(tert-butoxy)carbonylamino]propyl}(5-fluoro-2-{[2-(3-fluorophenyl)ethyl]amino}-6-(1-methylpyrazol-4-yl)(3-pyridyl))carboxamide], the IC50 was determined as 4.5 µM. As to `CC(C)(C)OC(=O)NCCCNC(=O)CNC(=O)c1ccc(-c2ccccc2C#N)nc1NCCc1cccc(F)c1` [N-{3-[(tert-butoxy)carbonylamino]propyl}-2-[(6-(2-cyanophenyl)-2-{[2-(3-fluorophenyl)ethyl]amino}(3-pyridyl))carbonylamino]acetamide], the IC50 was 9.88 µM. For `N#Cc1ccccc1-c1ccc(C(=O)N[C@H](CCCCNC(=O)OCc2ccccc2)C(N)=O)c(NCCc2cccc(F)c2)n1` [N-{(1R)-1-carbamoyl-5-[(phenylmethoxy)carbonylamino]pentyl}(6-(2-cyanophenyl)-2-{[2-(3-fluorophenyl)ethyl]amino}(3-pyridyl))carboxamide] the value was 58.8 µM. For `CC(=O)N[C@@H](CNC(=O)c1ccc(-c2ccccc2C#N)nc1NCCc1cccc(F)c1)C(N)=O` [N-{(1S)-1-carbamoyl-2-[(6-(2-cyanophenyl)-2-{[2-(3-fluorophenyl)ethyl]amino}(3-pyridyl))carbonylamino]ethyl}acetamide] the value was 2.63 µM. Regarding `C[C@H](CNC(=O)c1cc(F)c(-c2cnn(C)c2)nc1NCCc1cccc(F)c1)NCCO` [N-{(2R)-2-[(2-hydroxyethyl)amino]propyl}(5-fluoro-2-{[2-(3-fluorophenyl)ethyl]amino}-6-(1-methylpyrazol-4-yl)(3-pyridyl))carboxamide], the IC50 was found to be 0.648 µM.

Regarding `COCCN[C@H](C)CNC(=O)c1cc(F)c(-c2cnn(C)c2)nc1NCCc1cccc(F)c1` [N-{(2R)-2-[(2-methoxyethyl)amino]propyl}(5-fluoro-2-{[2-(3-fluorophenyl)ethyl]amino}-6-(1-methylpyrazol-4-yl)(3-pyridyl))carboxamide], the IC50 amounted to 2.33 µM. The value for `C[C@H](CNC(=O)c1cc(F)c(-c2cnn(C)c2)nc1NCCc1cccc(F)c1)NCC(N)=O` [N-{(2R)-2-[(carbamoylmethyl)amino]propyl}(5-fluoro-2-{[2-(3-fluorophenyl)ethyl]amino}-6-(1-methylpyrazol-4-yl)(3-pyridyl))carboxamide] was 0.636 µM.
